Where a name gives a salt, the structure may show the parent alone. Read-outs that look alike come from different tables or passages of the source.
Tests used:
Experiment in all cases: AK assay 384-well format, Prestwick library screening
E. coli = format: cell-based, Escherichia coli; conditions: Escherichia coli, 3 h, 50 μM final drug concentration
E. cloacae = format: cell-based, Enterobacter cloacae; conditions: Enterobacter cloacae, 3 h, 50 μM final drug concentration
K. pneumoniae = format: cell-based, Klebsiella pneumoniae; conditions: Klebsiella pneumoniae, 3 h, 50 μM final drug concentration
[1] = test system: S. aureus strain USA300-0114; format: cell-based, Staphylococcus aureus; conditions: Staphylococcus aureus, USA300, 3 h, 50 μM final drug concentration
P. aeruginosa = format: cell-based, Pseudomonas aeruginosa; conditions: Pseudomonas aeruginosa, 3 h, 50 μM final drug concentration
[2] = test system: A. baumannii strain 98-37-09; format: cell-based, Acinetobacter baumannii; conditions: Acinetobacter baumannii, 983709, 3 h, 50 μM final drug concentration
E. faecium = format: cell-based, Enterococcus faecium; conditions: Enterococcus faecium, 3 h, 50 μM final drug concentration
[3] = planktonic, cutoff for positive-scoring molecules 3-fold increase, read-out: AK-based Prestwick Library Screening Results, E. coli (fold increase in extracellular AK activity)
[4] = planktonic, cutoff for positive-scoring molecules 3-fold increase, read-out: AK-based Prestwick Library Screening Results, E. cloacae (fold increase in extracellular AK activity)
[5] = planktonic, cutoff for positive-scoring molecules 3-fold increase, read-out: AK-based Prestwick Library Screening Results, K. pneumoniae (fold increase in extracellular AK activity)
[6] = planktonic, cutoff for positive-scoring molecules 3-fold increase, read-out: AK-based Prestwick Library Screening Results, S. aureus (fold increase in extracellular AK activity)
[7] = planktonic, cutoff for positive-scoring molecules 3-fold increase, read-out: AK-based Prestwick Library Screening Results, P. aeruginosa (fold increase in extracellular AK activity)
[8] = planktonic, cutoff for positive-scoring molecules 3-fold increase, read-out: AK-based Prestwick Library Screening Results, A. baumannii (fold increase in extracellular AK activity)
[9] = planktonic, cutoff for positive-scoring molecules 3-fold increase, read-out: AK-based Prestwick Library Screening Results, E. faecium (fold increase in extracellular AK activity)
[10] = planktonic E. coli, 384-well, cutoff for positive-scoring molecules 3-fold increase, read-out: AK-based Prestwick Library Screening Results: E. coli (increase in extracellular AK activity)
[11] = planktonic E. cloacae, 384-well, cutoff for positive-scoring molecules 3-fold increase, read-out: AK-based Prestwick Library Screening Results: E. cloacae (increase in extracellular AK activity)
[12] = planktonic K. pneumoniae, 384-well, cutoff for positive-scoring molecules 3-fold increase, read-out: AK-based Prestwick Library Screening Results: K. pneumoniae (increase in extracellular AK activity)
[13] = planktonic S. aureus, 384-well, cutoff for positive-scoring molecules 3-fold increase, read-out: AK-based Prestwick Library Screening Results: S. aureus (increase in extracellular AK activity)
[14] = planktonic P. aeruginosa, 384-well, cutoff for positive-scoring molecules 3-fold increase, read-out: AK-based Prestwick Library Screening Results: P. aeruginosa (increase in extracellular AK activity)
[15] = planktonic A. baumannii, 384-well, cutoff for positive-scoring molecules 3-fold increase, read-out: AK-based Prestwick Library Screening Results: A. baumannii (increase in extracellular AK activity)
[16] = planktonic E. faecium, 384-well, cutoff for positive-scoring molecules 3-fold increase, read-out: AK-based Prestwick Library Screening Results: E. faecium (increase in extracellular AK activity)
[17] = 384-well format, cutoff for positive-scoring molecules 3-fold increase, read-out: AK-based Prestwick Library Screening Results, E. coli (increase in extracellular AK activity)
[18] = 384-well format, cutoff for positive-scoring molecules 3-fold increase, read-out: AK-based Prestwick Library Screening Results, E. cloacae (increase in extracellular AK activity)
[19] = 384-well format, cutoff for positive-scoring molecules 3-fold increase, read-out: AK-based Prestwick Library Screening Results, K. pneumoniae (increase in extracellular AK activity)
[20] = 384-well format, cutoff for positive-scoring molecules 3-fold increase, read-out: AK-based Prestwick Library Screening Results, S. aureus (increase in extracellular AK activity)
[21] = 384-well format, cutoff for positive-scoring molecules 3-fold increase, read-out: AK-based Prestwick Library Screening Results, P. aeruginosa (increase in extracellular AK activity)
[22] = 384-well format, cutoff for positive-scoring molecules 3-fold increase, read-out: AK-based Prestwick Library Screening Results, A. baumannii (increase in extracellular AK activity)
[23] = 384-well format, cutoff for positive-scoring molecules 3-fold increase, read-out: AK-based Prestwick Library Screening Results, E. faecium (increase in extracellular AK activity)

CC(C)c1c(CN(C)C(C)Cc2ccccc2)n(C)n(-c2ccccc2)c1=O (stereo not shown) [Famprofazone]
fold induction at 50 µM (E. coli; […], read-out: AK-based Prestwick Library Screening Results, E. coli (fold increase in extracellular AK activity)): 1.2
fold induction at 50 µM (E. cloacae; […], read-out: AK-based Prestwick Library Screening Results, E. cloacae (fold increase in extracellular AK activity)): 1.5
fold induction at 50 µM (K. pneumoniae; […], read-out: AK-based Prestwick Library Screening Results, K. pneumoniae (fold increase in extracellular AK activity)): 1.1
fold induction at 50 µM ([1]; […], read-out: AK-based Prestwick Library Screening Results, S. aureus (fold increase in extracellular AK activity)): 0.8
fold induction at 50 µM (P. aeruginosa; […], read-out: AK-based Prestwick Library Screening Results, P. aeruginosa (fold increase in extracellular AK activity)): 1.2
fold induction at 50 µM ([2]; […], read-out: AK-based Prestwick Library Screening Results, A. baumannii (fold increase in extracellular AK activity)): 1.1
fold induction at 50 µM (E. faecium; […], read-out: AK-based Prestwick Library Screening Results, E. faecium (fold increase in extracellular AK activity)): 1

O=C(O)Cc1ccc(-c2ccccc2)cc1 [Felbinac]
fold induction at 50 µM (E. coli; [3]): 0.7
fold induction at 50 µM (E. cloacae; [4]): 1
fold induction at 50 µM (K. pneumoniae; [5]): 0.6
fold induction at 50 µM [1, 6]: 0.6
fold induction at 50 µM (P. aeruginosa; [7]): 0.7
fold induction at 50 µM [2, 8]: 0.8
fold induction at 50 µM (E. faecium; [9]): 0.9

CCOC(=O)C1=C(C)NC(C)=C(C(=O)OC)C1c1cccc(Cl)c1Cl (stereo not shown) [Felodipine]
fold induction at 50 µM (E. coli; planktonic, cutoff for positive 3-fold increase, read-out: AK-based Prestwick Library Screening Results, E. coli (fold increase in extracellular AK activity)): 1.2
fold induction at 50 µM (E. cloacae; planktonic, cutoff for positive 3-fold increase, read-out: AK-based Prestwick Library Screening Results, E. cloacae (fold increase in extracellular AK activity)): 1.7
fold induction at 50 µM (K. pneumoniae; planktonic, cutoff for positive 3-fold increase, read-out: AK-based Prestwick Library Screening Results, K. pneumoniae (fold increase in extracellular AK activity)): 1
fold induction at 50 µM ([1]; planktonic, cutoff for positive 3-fold increase, read-out: AK-based Prestwick Library Screening Results, S. aureus (fold increase in extracellular AK activity)): 2.5
fold induction at 50 µM (P. aeruginosa; planktonic, cutoff for positive 3-fold increase, read-out: AK-based Prestwick Library Screening Results, P. aeruginosa (fold increase in extracellular AK activity)): 1
fold induction at 50 µM ([2]; planktonic, cutoff for positive 3-fold increase, read-out: AK-based Prestwick Library Screening Results, A. baumannii (fold increase in extracellular AK activity)): 3
fold induction at 50 µM (E. faecium; planktonic, cutoff for positive 3-fold increase, read-out: AK-based Prestwick Library Screening Results, E. faecium (fold increase in extracellular AK activity)): 1.3

COC(=O)Nc1nc2ccc(Sc3ccccc3)cc2[nH]1 [Fenbendazole]
fold induction at 50 µM (E. coli; [10]): 0.9
fold induction at 50 µM (E. cloacae; [11]): 1.3
fold induction at 50 µM (K. pneumoniae; [12]): 0.7
fold induction at 50 µM [1, 13]: 0.6
fold induction at 50 µM (P. aeruginosa; [14]): 0.9
fold induction at 50 µM [2, 15]: 0.9
fold induction at 50 µM (E. faecium; [16]): 0.9

O=C(O)CCC(=O)c1ccc(-c2ccccc2)cc1 [Fenbufen]
fold induction at 50 µM (E. coli; [10]): 0.8
fold induction at 50 µM (E. cloacae; [11]): 1.6
fold induction at 50 µM (K. pneumoniae; [12]): 0.8
fold induction at 50 µM [1, 13]: 0.7
fold induction at 50 µM (P. aeruginosa; [14]): 0.8
fold induction at 50 µM [2, 15]: 1
fold induction at 50 µM (E. faecium; [16]): 0.8

CC(NCCC(c1ccccc1)c1ccccc1)c1ccccc1 (stereo not shown) [Fendiline hydrochloride]
fold induction at 50 µM (E. coli; [17]): 1
fold induction at 50 µM (E. cloacae; [18]): 0.9
fold induction at 50 µM (K. pneumoniae; [19]): 0.8
fold induction at 50 µM [1, 20]: 0.8
fold induction at 50 µM (P. aeruginosa; [21]): 1.1
fold induction at 50 µM [2, 22]: 1.5
fold induction at 50 µM (E. faecium; [23]): 1.1

CC(C)OC(=O)C(C)(C)Oc1ccc(C(=O)c2ccc(Cl)cc2)cc1 [Fenofibrate]
fold induction at 50 µM (E. coli; [17]): 0.8
fold induction at 50 µM (E. cloacae; [18]): 1.2
fold induction at 50 µM (K. pneumoniae; [19]): 0.6
fold induction at 50 µM [1, 20]: 0.8
fold induction at 50 µM (P. aeruginosa; [21]): 0.8
fold induction at 50 µM [2, 22]: 0.7
fold induction at 50 µM (E. faecium; [23]): 0.8

CC(C(=O)O)c1cccc(Oc2ccccc2)c1 (stereo not shown) [Fenoprofen calcium salt dihydrate]
fold induction at 50 µM (E. coli; [3]): 0.8
fold induction at 50 µM (E. cloacae; [4]): 1.4
fold induction at 50 µM (K. pneumoniae; [5]): 0.7
fold induction at 50 µM [1, 6]: 0.8
fold induction at 50 µM (P. aeruginosa; [7]): 0.8
fold induction at 50 µM [2, 8]: 0.8
fold induction at 50 µM (E. faecium; [9]): 0.9

CC(Cc1ccc(O)cc1)NCC(O)c1cc(O)cc(O)c1 (stereo not shown) [Fenoterol hydrobromide]
fold induction at 50 µM (E. coli; planktonic E. coli, 384-well, […], read-out: AK-based Prestwick Library Screening Results: E. coli (increase in extracellular AK activity)): 1.3
fold induction at 50 µM (E. cloacae; planktonic E. cloacae, 384-well, […], read-out: AK-based Prestwick Library Screening Results: E. cloacae (increase in extracellular AK activity)): 1.4
fold induction at 50 µM (K. pneumoniae; planktonic K. pneumoniae, 384-well, […], read-out: AK-based Prestwick Library Screening Results: K. pneumoniae (increase in extracellular AK activity)): 0.9
fold induction at 50 µM ([1]; planktonic S. aureus, 384-well, […], read-out: AK-based Prestwick Library Screening Results: S. aureus (increase in extracellular AK activity)): 1
fold induction at 50 µM (P. aeruginosa; planktonic P. aeruginosa, 384-well, […], read-out: AK-based Prestwick Library Screening Results: P. aeruginosa (increase in extracellular AK activity)): 1.1
fold induction at 50 µM ([2]; planktonic A. baumannii, 384-well, […], read-out: AK-based Prestwick Library Screening Results: A. baumannii (increase in extracellular AK activity)): 1.3
fold induction at 50 µM (E. faecium; planktonic E. faecium, 384-well, […], read-out: AK-based Prestwick Library Screening Results: E. faecium (increase in extracellular AK activity)): 1.1

O=C1NCC2(CCN(CCc3ccccc3)CC2)O1 [Fenspiride hydrochloride]
fold induction at 50 µM (E. coli; [10]): 1.3
fold induction at 50 µM (E. cloacae; [11]): 1.6
fold induction at 50 µM (K. pneumoniae; [12]): 1
fold induction at 50 µM [1, 13]: 1.1
fold induction at 50 µM (P. aeruginosa; [14]): 1.1
fold induction at 50 µM [2, 15]: 1.2
fold induction at 50 µM (E. faecium; [16]): 1
